# What was measured:
# Experiment in all cases: radiometric filter-binding kinase assay, Kinase HotSpot
# Details in all cases: compound 0.5 µM; ATP 10 µM
# AKT1 (human) = AKT1 (human) (UniProt P31749)
# CAMK1D (human) = CAMK1D (human) (UniProt Q8IU85)
# CAMK1G (human) = CAMK1G (human) (UniProt Q96NX5)
# CAMK2B (human) = CAMK2B (human) (UniProt Q13554)
# CAMK2D (human) = CAMK2D (human) (UniProt Q13557)
# CDK1 CCNB1 (human) = CDK1 CCNB1 (human) (UniProt P06493+P14635)
# CDK3 CCNE1 (human) = CDK3 CCNE1 (human) (UniProt Q00526+P24864)
# CDK4 CCND1 (human) = CDK4 CCND1 (human) (UniProt P24385+P11802)
# CHEK1 (human) = CHEK1 (human) (UniProt O14757)
# CLK2 (human) = CLK2 (human) (UniProt P49760)
# CSNK1G1 (human) = CSNK1G1 (human) (UniProt Q9HCP0)
# CSNK1G3 (human) = CSNK1G3 (human) (UniProt Q9Y6M4)
# CSNK2A2 (human) = CSNK2A2 (human) (UniProt P19784)
# EGFR (human) = EGFR (human) (UniProt P00533)
# EPHA5 (human) = EPHA5 (human) (UniProt P54756)
# EPHA8 (human) = EPHA8 (human) (UniProt P29322)
# EPHB3 (human) = EPHB3 (human) (UniProt P54753)
# FES (human) = FES (human) (UniProt P07332)
# FGFR1 (human) = FGFR1 (human) (UniProt P11362)
# FGFR4 (human) = FGFR4 (human) (UniProt P22455)
# GRK4 (human) = GRK4 (human) (UniProt P32298)
# HIPK3 (human) = HIPK3 (human) (UniProt Q9H422)
# IKBKB (human) = IKBKB (human) (UniProt O14920)
# IKBKE (human) = IKBKE (human) (UniProt Q14164)
# MAP2K1 (human) = MAP2K1 (human) (UniProt Q02750)
# MAP3K5 (human) = MAP3K5 (human) (UniProt Q99683)
# MAP4K4 (human) = MAP4K4 (human) (UniProt O95819)
# MAP4K5 (human) = MAP4K5 (human) (UniProt Q9Y4K4)
# MAPK13 (human) = MAPK13 (human) (UniProt O15264)
# MAPK3 (human) = MAPK3 (human) (UniProt P27361)
# MARK1 (human) = MARK1 (human) (UniProt Q9P0L2)
# MELK (human) = MELK (human) (UniProt Q14680)
# NTRK3 (human) = NTRK3 (human) (UniProt Q16288)
# PDPK1 (human) = PDPK1 (human) (UniProt O15530)
# PHKG1 (human) = PHKG1 (human) (UniProt Q16816)
# ROCK2 (human) = ROCK2 (human) (UniProt O75116)
# SLK (human) = SLK (human) (UniProt Q9H2G2)
# SRMS (human) = SRMS (human) (UniProt Q9H3Y6)
# STK3 (human) = STK3 (human) (UniProt Q13188)
# TAOK3 (human) = TAOK3 (human) (UniProt Q9H2K8)
# TYRO3 (human) = TYRO3 (human) (UniProt Q06418)
# ULK2 (human) = ULK2 (human) (UniProt Q8IYT8)
# ULK2 (human), sequence (Q8IYT8 whole entry, looked up): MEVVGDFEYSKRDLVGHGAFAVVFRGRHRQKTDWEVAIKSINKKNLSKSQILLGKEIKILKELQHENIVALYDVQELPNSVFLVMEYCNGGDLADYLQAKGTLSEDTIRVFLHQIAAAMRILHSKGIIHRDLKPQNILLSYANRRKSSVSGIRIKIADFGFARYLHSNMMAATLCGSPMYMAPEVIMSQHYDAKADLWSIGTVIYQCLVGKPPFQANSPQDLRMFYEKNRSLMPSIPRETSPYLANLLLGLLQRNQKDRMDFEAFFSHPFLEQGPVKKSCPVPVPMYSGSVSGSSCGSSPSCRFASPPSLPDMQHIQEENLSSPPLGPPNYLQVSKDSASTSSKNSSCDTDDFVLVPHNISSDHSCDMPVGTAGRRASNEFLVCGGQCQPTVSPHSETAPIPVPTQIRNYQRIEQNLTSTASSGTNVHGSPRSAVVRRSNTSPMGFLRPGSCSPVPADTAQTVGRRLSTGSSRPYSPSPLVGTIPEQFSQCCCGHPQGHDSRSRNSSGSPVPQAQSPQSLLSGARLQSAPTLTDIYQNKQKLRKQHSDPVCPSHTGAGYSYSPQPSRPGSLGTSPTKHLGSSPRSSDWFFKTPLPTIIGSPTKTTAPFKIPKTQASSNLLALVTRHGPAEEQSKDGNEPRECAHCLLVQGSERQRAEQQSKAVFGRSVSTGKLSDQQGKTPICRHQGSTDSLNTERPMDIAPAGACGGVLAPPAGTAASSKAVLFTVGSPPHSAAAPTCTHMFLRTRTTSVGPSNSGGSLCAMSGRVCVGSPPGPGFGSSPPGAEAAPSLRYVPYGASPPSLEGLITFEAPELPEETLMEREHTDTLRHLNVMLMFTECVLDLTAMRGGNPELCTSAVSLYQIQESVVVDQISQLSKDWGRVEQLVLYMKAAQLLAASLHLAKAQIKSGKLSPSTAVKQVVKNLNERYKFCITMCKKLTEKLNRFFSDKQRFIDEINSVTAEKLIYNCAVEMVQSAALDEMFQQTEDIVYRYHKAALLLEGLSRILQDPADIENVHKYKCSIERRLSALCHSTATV
# STK3 (human), sequence (Q13188 whole entry, looked up): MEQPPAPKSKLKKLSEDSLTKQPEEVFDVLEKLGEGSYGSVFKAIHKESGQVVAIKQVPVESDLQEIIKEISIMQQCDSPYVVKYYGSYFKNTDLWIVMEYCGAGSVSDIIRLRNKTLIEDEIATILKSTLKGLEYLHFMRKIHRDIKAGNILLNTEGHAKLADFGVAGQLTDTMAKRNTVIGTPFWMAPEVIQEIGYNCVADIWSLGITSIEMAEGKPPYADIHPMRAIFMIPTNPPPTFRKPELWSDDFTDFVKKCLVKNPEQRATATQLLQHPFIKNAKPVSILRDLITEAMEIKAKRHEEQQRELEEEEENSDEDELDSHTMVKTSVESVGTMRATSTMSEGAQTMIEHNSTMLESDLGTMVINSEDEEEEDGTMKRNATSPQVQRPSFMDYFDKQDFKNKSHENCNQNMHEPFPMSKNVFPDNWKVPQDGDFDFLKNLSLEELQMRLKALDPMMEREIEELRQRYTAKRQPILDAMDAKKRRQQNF
# MARK1 (human), sequence (Q9P0L2 whole entry, looked up): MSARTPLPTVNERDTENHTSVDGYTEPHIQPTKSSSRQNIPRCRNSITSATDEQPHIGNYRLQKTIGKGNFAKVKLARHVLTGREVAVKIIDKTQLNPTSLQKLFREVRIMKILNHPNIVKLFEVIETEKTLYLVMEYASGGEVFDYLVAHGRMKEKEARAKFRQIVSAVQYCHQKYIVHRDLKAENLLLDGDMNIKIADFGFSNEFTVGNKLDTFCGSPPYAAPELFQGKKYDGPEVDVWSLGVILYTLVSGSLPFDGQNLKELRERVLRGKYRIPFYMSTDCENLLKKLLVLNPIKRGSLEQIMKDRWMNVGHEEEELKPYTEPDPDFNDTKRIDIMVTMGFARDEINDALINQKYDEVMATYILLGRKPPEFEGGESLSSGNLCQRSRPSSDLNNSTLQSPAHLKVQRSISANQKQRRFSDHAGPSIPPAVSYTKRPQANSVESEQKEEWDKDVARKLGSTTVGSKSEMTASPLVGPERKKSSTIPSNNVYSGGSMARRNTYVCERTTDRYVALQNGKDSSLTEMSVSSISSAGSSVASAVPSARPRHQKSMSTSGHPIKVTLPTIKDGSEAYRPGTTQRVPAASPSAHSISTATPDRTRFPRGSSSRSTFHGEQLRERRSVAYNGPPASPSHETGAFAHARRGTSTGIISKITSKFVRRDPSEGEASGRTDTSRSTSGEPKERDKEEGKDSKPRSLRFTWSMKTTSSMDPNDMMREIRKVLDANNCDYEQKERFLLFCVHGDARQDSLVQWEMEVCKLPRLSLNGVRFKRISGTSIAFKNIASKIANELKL
# CAMK1D (human), sequence (Q8IU85 whole entry, looked up): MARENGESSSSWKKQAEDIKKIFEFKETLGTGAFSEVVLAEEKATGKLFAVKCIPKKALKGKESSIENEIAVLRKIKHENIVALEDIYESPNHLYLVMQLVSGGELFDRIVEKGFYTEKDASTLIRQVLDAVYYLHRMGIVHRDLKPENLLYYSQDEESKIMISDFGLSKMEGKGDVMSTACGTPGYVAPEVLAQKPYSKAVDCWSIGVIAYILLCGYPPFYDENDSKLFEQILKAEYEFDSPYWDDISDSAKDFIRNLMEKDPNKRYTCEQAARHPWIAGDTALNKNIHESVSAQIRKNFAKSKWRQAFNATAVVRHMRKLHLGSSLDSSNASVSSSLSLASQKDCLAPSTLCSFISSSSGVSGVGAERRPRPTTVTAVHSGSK
# FES (human), sequence (P07332 whole entry, looked up): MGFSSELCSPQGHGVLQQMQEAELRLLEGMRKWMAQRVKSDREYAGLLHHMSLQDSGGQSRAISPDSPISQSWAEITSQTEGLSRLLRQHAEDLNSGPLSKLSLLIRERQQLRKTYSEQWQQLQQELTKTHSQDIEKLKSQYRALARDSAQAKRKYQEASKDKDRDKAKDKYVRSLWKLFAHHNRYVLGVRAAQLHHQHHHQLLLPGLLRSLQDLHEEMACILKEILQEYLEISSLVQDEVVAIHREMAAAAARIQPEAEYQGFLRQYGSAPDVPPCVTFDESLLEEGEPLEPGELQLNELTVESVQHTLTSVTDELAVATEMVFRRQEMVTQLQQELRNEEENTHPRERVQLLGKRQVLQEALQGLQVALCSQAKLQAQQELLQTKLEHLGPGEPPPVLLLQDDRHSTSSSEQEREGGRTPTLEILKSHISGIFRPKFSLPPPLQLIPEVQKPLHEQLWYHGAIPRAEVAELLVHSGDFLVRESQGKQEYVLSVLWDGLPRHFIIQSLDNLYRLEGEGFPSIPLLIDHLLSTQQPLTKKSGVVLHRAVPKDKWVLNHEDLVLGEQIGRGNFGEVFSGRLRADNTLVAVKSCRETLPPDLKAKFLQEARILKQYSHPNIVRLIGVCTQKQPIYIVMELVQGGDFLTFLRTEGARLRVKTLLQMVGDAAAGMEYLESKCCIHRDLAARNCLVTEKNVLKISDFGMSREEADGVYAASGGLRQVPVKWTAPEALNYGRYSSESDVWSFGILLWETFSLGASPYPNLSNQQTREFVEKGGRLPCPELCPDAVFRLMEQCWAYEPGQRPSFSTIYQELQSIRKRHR
# CAMK2B (human), sequence (Q13554 whole entry, looked up): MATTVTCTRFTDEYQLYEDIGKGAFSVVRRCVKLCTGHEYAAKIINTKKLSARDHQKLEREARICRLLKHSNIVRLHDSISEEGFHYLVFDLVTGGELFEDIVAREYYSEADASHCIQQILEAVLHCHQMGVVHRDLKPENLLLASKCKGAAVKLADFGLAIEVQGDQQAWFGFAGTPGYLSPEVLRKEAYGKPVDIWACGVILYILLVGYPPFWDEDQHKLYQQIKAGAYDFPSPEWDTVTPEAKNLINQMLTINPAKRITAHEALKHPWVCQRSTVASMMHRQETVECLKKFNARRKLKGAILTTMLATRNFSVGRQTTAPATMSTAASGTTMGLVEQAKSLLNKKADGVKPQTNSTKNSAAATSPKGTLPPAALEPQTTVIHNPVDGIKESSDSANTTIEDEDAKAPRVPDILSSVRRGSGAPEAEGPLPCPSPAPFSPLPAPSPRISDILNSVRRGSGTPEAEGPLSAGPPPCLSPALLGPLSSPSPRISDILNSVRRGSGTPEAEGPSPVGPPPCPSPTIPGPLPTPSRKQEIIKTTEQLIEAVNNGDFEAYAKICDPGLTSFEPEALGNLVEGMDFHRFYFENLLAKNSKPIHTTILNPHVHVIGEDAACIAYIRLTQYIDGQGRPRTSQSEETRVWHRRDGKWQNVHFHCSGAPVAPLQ
# IKBKB (human), sequence (O14920 whole entry, looked up): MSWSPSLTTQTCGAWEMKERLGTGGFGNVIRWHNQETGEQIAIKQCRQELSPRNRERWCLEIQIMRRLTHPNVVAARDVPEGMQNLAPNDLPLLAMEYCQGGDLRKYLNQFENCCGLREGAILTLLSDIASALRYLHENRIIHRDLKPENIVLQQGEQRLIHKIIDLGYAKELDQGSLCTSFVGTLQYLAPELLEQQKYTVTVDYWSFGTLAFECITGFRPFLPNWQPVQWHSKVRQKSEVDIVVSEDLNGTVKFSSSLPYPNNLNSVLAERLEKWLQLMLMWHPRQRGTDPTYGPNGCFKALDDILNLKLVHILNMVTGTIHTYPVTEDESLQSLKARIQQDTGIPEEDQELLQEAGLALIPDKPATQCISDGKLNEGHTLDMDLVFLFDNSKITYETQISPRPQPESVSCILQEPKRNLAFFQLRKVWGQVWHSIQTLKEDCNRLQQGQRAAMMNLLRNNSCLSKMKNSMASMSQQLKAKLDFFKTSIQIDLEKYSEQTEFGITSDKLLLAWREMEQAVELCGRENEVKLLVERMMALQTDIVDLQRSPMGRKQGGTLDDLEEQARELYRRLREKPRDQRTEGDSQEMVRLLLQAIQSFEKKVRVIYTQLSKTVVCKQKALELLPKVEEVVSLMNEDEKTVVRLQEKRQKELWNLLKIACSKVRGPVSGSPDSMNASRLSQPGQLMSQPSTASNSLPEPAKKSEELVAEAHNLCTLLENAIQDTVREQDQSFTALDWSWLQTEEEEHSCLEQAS
smiles,measurement,setting,value
Cc1nc2cc3nc(-c4cccs4)cnc3cc2n1C,residual activity,AKT1 (human),114%
same,residual activity,CAMK1D (human),107%
same,residual activity,CAMK1G (human),106%
same,residual activity,CAMK2B (human),101%
same,residual activity,CAMK2D (human),100%
same,residual activity,CDK1 CCNB1 (human),96.7%
same,residual activity,CDK3 CCNE1 (human),93.6%
same,residual activity,CDK4 CCND1 (human),108%
same,residual activity,CHEK1 (human),99.8%
same,residual activity,CLK2 (human),95.3%
same,residual activity,CSNK1G1 (human),92.2%
same,residual activity,CSNK1G3 (human),96.1%
same,residual activity,CSNK2A2 (human),99%
same,residual activity,EGFR (human),104%
same,residual activity,EPHA5 (human),105%
same,residual activity,EPHA8 (human),100%
same,residual activity,EPHB3 (human),101%
same,residual activity,FES (human),106%
same,residual activity,FGFR1 (human),88.8%
same,residual activity,FGFR4 (human),96.3%
same,residual activity,GRK4 (human),104%
same,residual activity,HIPK3 (human),101%
same,residual activity,IKBKB (human),103%
same,residual activity,IKBKE (human),89.8%
same,residual activity,MAP2K1 (human),89.7%
same,residual activity,MAP3K5 (human),98.9%
same,residual activity,MAP4K4 (human),84.5%
same,residual activity,MAP4K5 (human),94.8%
same,residual activity,MAPK13 (human),99.7%
same,residual activity,MAPK3 (human),117%
same,residual activity,MARK1 (human),102%
same,residual activity,MELK (human),95.6%
same,residual activity,NTRK3 (human),59.9%
same,residual activity,PDPK1 (human),106%
same,residual activity,PHKG1 (human),98.2%
same,residual activity,ROCK2 (human),107%
same,residual activity,SLK (human),94.5%
same,residual activity,SRMS (human),95.4%
same,residual activity,STK3 (human),97.1%
same,residual activity,TAOK3 (human),116%
same,residual activity,TYRO3 (human),103%
same,residual activity,ULK2 (human),105%
O=C(CCCc1ccc(-c2ccccc2F)cc1)Nc1ccc(O)cc1,residual activity,AKT1 (human),97.7%
same,residual activity,CAMK1D (human),122%
same,residual activity,CAMK1G (human),96.8%
same,residual activity,CAMK2B (human),99.9%
same,residual activity,CAMK2D (human),108%
same,residual activity,CDK1 CCNB1 (human),102%
same,residual activity,CDK3 CCNE1 (human),92.6%
same,residual activity,CDK4 CCND1 (human),102%
same,residual activity,CHEK1 (human),98.8%
same,residual activity,CLK2 (human),103%
same,residual activity,CSNK1G1 (human),104%
same,residual activity,CSNK1G3 (human),104%
same,residual activity,CSNK2A2 (human),78.7%
same,residual activity,EGFR (human),87.9%
same,residual activity,EPHA5 (human),99%
same,residual activity,EPHA8 (human),114%
same,residual activity,EPHB3 (human),96.5%
same,residual activity,FES (human),100%
same,residual activity,FGFR1 (human),98%
same,residual activity,FGFR4 (human),106%
same,residual activity,GRK4 (human),96.8%
same,residual activity,HIPK3 (human),99.4%
same,residual activity,IKBKB (human),101%
same,residual activity,IKBKE (human),98.2%
same,residual activity,MAP2K1 (human),104%
same,residual activity,MAP3K5 (human),94.3%
same,residual activity,MAP4K4 (human),92.9%
same,residual activity,MAP4K5 (human),94.1%
same,residual activity,MAPK13 (human),103%
same,residual activity,MAPK3 (human),132%
same,residual activity,MARK1 (human),96.7%
same,residual activity,MELK (human),95.5%
same,residual activity,NTRK3 (human),96.3%
same,residual activity,PDPK1 (human),112%
same,residual activity,PHKG1 (human),89.1%
same,residual activity,ROCK2 (human),90.5%
same,residual activity,SLK (human),102%
same,residual activity,SRMS (human),101%
same,residual activity,STK3 (human),94.8%
same,residual activity,TAOK3 (human),91.4%
same,residual activity,TYRO3 (human),98.2%
same,residual activity,ULK2 (human),116%
CC(C)[C@H](CO)Nc1nc(Nc2cc(N)cc(Cl)c2)c2ncn(C(C)C)c2n1,residual activity,AKT1 (human),117%
same,residual activity,CAMK1D (human),103%
same,residual activity,CAMK1G (human),105%
same,residual activity,CAMK2B (human),98.2%
same,residual activity,CAMK2D (human),87.3%
same,residual activity,CDK3 CCNE1 (human),31.9%
same,residual activity,CHEK1 (human),96.2%
same,residual activity,CLK2 (human),17.7%
same,residual activity,CSNK1G1 (human),26.4%
same,residual activity,CSNK1G3 (human),13.4%
same,residual activity,CSNK2A2 (human),106%
same,residual activity,EGFR (human),93.9%
same,residual activity,EPHA5 (human),64%
same,residual activity,EPHA8 (human),92.5%
same,residual activity,EPHB3 (human),95.3%
same,residual activity,FES (human),69.2%
same,residual activity,FGFR1 (human),76.7%
same,residual activity,FGFR4 (human),93.4%
same,residual activity,GRK4 (human),103%
same,residual activity,HIPK3 (human),99.4%
same,residual activity,IKBKB (human),104%
same,residual activity,IKBKE (human),88.4%
same,residual activity,MAP2K1 (human),91.3%
same,residual activity,MAP3K5 (human),95.6%
same,residual activity,MAP4K4 (human),86.1%
same,residual activity,MAP4K5 (human),82.5%
same,residual activity,MAPK13 (human),101%
same,residual activity,MAPK3 (human),106%
same,residual activity,MARK1 (human),87.5%
same,residual activity,MELK (human),51.5%
same,residual activity,NTRK3 (human),4.42%
same,residual activity,PDPK1 (human),106%
same,residual activity,PHKG1 (human),81.1%
same,residual activity,ROCK2 (human),101%
same,residual activity,SLK (human),39.8%
same,residual activity,SRMS (human),96.8%
same,residual activity,STK3 (human),70%
same,residual activity,TAOK3 (human),86.9%
same,residual activity,TYRO3 (human),103%
same,residual activity,ULK2 (human),74.9%
O=C1Nc2ccccc2/C1=C1/Nc2ccccc2/C1=N\OCCC(O)CO (stereo not given),residual activity,AKT1 (human),95.6%
same,residual activity,CAMK1D (human),80.3%
same,residual activity,CAMK1G (human),102%
same,residual activity,CAMK2B (human),57.9%
same,residual activity,CAMK2D (human),29.1%
same,residual activity,CDK1 CCNB1 (human),33.4%
same,residual activity,CDK3 CCNE1 (human),65.2%
same,residual activity,CDK4 CCND1 (human),96.4%
same,residual activity,CHEK1 (human),67%
same,residual activity,CLK2 (human),92%
same,residual activity,CSNK1G1 (human),89.2%
same,residual activity,CSNK1G3 (human),90.7%
same,residual activity,CSNK2A2 (human),28.3%
same,residual activity,EGFR (human),88.1%
same,residual activity,EPHA5 (human),68%
same,residual activity,EPHA8 (human),91.9%
same,residual activity,FES (human),81.7%
same,residual activity,FGFR1 (human),27.9%
same,residual activity,FGFR4 (human),65.7%
same,residual activity,GRK4 (human),74.7%
same,residual activity,HIPK3 (human),66.2%
same,residual activity,IKBKB (human),90.5%
same,residual activity,IKBKE (human),45.7%
same,residual activity,MAP2K1 (human),99.7%
same,residual activity,MAP3K5 (human),91.2%
same,residual activity,MAP4K4 (human),11.6%
same,residual activity,MAP4K5 (human),15.5%
same,residual activity,MAPK13 (human),94.8%
same,residual activity,MAPK3 (human),98.7%
same,residual activity,MARK1 (human),60.5%
same,residual activity,MELK (human),13.1%
same,residual activity,NTRK3 (human),1.01%
same,residual activity,PDPK1 (human),83.3%
same,residual activity,PHKG1 (human),8.06%
same,residual activity,ROCK2 (human),91%
same,residual activity,SLK (human),59.9%
same,residual activity,SRMS (human),102%
same,residual activity,STK3 (human),4.81%
same,residual activity,TAOK3 (human),55.4%
same,residual activity,TYRO3 (human),71.5%
same,residual activity,ULK2 (human),102%

# From the kinase profiling compilation of Christmann-Franck et al. (2016)
